The values that follow come from article PMC3084506 (Archives of Drug Information, 2011).

SMILES strings stand for the structures. Entries after “also recorded” stand apart in the source; their conditions may differ. Where two headings read alike, the source gives them in different places. Square brackets hold non-standard residues; d marks the D form. Peptide text beside a SMILES is read from it. Sar = CNCC(=O)O

For data set [1] the following is noted: cited from earlier work.
The test system of data set [2] is P-gp (MDCKI-MDR1 cells). The note with it: MDCKI-MDR1 and L-MDR1 cells; cited from earlier work.
The next data set addresses P-gp (MDCKII-MDR1 cells) (Homo sapiens, UniProt P08183). The note with it: MDCKII vs MDCKII-MDR1; cited from earlier work.
The subject of the next data set is MDCKI cells. Description: Effect of inhibitors on ciprofloxacin bidirectional transport in MDCKI cells. The note with it: 25 µM ciprofloxacin, inhibitor concentrations as in Figure 4 legend.
Data set [3] deals with P-gp (MDCKI-MDR1 cells). The note with it: studies done in our lab.
In data set [4] the target is T1, P-gp (L-MDR1 cells) (Homo sapiens, UniProt P08183). The note with it: LLC-PK1 vs L-MDR1, cited from earlier work.
For data set [5] the following is noted: humans; cited from earlier work.
For a further data set, the system named is OAT3. Particulars: cited from earlier work.
Another data set addresses MRP1 (L-MRP1 cells) (Homo sapiens, UniProt P33527). Description: Bidirectional transport study in L-MRP1 cells. Type of data set: in vitro ADME. The note with it: LLC-PK1.
The nature of data set [6]: Bidirectional transport study in LLC-PK1 cells. Type of data set: in vitro ADME. The note with it: pig.
Data set [7] can be described thus: Bidirectional transport study in MDCKI cells. The note with it: dog, MDCK. Type of data set: in vitro ADME, canine.
The nature of a further data set: in vitro. The note with it: human, MDCK-MDR1.
Data set [8] deals with T1, P-gp (L-MDR1 cells). Description: Bidirectional transport study in L-MDR1 cells. Type of data set: in vitro ADME. Particulars: LLC-PK1.

T1 sequence (P08183 whole entry): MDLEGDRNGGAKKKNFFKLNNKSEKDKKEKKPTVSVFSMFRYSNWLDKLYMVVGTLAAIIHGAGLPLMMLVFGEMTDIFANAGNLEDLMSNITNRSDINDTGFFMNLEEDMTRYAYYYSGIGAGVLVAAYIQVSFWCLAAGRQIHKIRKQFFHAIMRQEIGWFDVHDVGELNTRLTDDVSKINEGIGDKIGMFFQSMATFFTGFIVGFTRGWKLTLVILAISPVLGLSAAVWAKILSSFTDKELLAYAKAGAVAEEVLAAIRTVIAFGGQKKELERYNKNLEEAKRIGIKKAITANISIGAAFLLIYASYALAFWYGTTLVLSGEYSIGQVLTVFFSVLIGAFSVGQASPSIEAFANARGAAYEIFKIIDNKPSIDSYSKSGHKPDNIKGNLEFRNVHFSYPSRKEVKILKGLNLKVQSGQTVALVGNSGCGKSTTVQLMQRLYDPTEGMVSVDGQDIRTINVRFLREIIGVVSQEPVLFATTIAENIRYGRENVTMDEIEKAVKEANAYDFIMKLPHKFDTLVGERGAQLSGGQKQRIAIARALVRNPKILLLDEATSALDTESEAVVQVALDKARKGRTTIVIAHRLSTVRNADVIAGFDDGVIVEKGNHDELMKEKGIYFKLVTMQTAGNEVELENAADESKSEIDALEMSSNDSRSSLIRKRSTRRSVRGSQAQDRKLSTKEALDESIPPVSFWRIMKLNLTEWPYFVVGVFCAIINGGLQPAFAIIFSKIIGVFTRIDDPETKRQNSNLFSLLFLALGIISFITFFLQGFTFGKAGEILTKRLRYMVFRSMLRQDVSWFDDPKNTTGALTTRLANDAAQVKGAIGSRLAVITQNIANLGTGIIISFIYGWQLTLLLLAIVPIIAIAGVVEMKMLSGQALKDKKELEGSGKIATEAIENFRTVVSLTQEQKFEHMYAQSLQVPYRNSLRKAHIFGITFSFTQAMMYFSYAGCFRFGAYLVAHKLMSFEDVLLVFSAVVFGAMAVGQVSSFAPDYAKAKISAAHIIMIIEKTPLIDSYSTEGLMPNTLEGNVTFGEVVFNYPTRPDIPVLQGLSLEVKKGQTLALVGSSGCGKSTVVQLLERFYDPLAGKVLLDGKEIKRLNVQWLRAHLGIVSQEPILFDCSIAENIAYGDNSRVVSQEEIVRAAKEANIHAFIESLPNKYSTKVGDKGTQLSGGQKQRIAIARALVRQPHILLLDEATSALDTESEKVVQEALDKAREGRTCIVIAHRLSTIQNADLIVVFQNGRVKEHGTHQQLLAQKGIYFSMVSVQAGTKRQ
Chain of P-gp (MDCKII-MDR1 cells) (P08183 whole entry): as above
Chain of MRP1 (L-MRP1 cells) (P33527 whole entry): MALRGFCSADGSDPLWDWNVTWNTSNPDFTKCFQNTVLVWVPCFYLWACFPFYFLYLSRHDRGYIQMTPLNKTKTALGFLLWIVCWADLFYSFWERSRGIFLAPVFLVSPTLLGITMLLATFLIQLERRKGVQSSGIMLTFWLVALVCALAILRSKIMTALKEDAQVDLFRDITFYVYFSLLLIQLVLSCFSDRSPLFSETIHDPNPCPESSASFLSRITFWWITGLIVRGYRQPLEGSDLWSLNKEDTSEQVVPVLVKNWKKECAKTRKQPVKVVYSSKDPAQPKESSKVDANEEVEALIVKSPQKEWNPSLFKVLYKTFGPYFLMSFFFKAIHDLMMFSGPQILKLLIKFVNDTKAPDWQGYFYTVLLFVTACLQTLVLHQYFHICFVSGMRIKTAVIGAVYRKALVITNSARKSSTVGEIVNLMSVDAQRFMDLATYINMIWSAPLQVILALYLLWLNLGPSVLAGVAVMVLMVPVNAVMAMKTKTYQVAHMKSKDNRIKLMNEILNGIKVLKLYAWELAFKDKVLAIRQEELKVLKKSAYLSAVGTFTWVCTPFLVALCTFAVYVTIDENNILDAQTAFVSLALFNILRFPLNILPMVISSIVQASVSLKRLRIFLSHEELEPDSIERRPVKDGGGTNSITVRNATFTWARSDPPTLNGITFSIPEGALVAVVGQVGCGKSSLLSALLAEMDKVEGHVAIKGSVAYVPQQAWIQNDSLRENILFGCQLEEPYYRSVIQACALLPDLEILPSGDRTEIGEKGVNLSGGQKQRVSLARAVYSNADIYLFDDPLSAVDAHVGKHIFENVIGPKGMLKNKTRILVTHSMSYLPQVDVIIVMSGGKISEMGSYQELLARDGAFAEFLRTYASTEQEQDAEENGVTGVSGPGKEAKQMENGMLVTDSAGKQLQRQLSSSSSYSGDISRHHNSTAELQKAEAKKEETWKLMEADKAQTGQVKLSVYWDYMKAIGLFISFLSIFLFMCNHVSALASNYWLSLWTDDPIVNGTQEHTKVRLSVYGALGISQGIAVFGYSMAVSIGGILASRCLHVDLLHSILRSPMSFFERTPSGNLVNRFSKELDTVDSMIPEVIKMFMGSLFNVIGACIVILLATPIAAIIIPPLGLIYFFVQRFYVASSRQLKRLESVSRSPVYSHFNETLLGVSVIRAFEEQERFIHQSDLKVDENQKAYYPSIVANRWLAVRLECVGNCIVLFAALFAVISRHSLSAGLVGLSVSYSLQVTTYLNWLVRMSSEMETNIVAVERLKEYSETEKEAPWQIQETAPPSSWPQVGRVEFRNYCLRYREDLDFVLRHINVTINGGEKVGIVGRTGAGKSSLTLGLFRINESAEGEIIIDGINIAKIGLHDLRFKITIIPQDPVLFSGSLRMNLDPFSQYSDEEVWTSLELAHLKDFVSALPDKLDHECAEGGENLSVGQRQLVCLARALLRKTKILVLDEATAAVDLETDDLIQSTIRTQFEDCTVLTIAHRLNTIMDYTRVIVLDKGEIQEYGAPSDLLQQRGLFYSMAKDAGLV

`O=C(O)c1cn(C2CC2)c2cc(N3CCNCC3)c(F)cc2c1=O` [ciprofloxacin]: the “eliminated via intestinal secretion” value in data set [1] was “at least 10%”.

Consider `COc1cc(Cc2cnc(N)nc2N)cc(OC)c1OC` [trimethoprim], for which the “P-gp substrate status from transport studies” value with P-gp (MDCKI-MDR1 cells) [2] is recorded as “substrate of P-gp”. Moreover, the “difference in transport between MDCKII and MDCKII-MDR1 cells” value on P-gp (MDCKII-MDR1 cells) is on record as “no difference”.

Take `CC[C@]1(O)C[C@@H]2CN(CCc3c([nH]c4ccccc34)[C@@](C(=O)OC)(c3cc4c(cc3OC)N(C)[C@H]3[C@@](O)(C(=O)OC)[C@H](OC(C)=O)[C@]5(CC)C=CCN6CC[C@]43[C@@H]65)C2)C1` [vinblastine]: in the data set on MDCKI cells, the “effect on ciprofloxacin transport in MDCKI cells (in words)” value (“effect on ciprofloxacin transport” below) is reported as “no significant effects”. Further, in the data set on P-gp (MDCKI-MDR1 cells) [3], the “P-gp substrate status from transport studies” value is recorded as “substrate of P-gp”. For the same compound, the “difference in transport between LLC-PK1 and L-MDR1 cells” value at P-gp (L-MDR1 cells) [4] is “no difference”; at P-gp (L-MDR1 cells) [4] (listed as Vinblastine) it was “did not show differences”.

For the compound `CCCN(CCC)S(=O)(=O)c1ccc(C(=O)O)cc1` [probenecid], the “effect on ciprofloxacin renal secretion” value in data set [5] is “competitively inhibit”. Moreover, in the data set on OAT3, the “interaction with OAT3” value is recorded as “inhibitor of OAT3”.

As to `OC[C@@H](O)[C@@H](O)[C@H](O)[C@H](O)CO` [mannitol], the Papp at 1 h at MRP1 (L-MRP1 cells) was roughly 3.5 ×10⁻⁶ cm/s; in data set [6] it was roughly 1.3 ×10⁻⁶ cm/s; in data set [7], roughly 0.5 ×10⁻⁶ cm/s; in the data set “in vitro” it was roughly 0.5 ×10⁻⁶ cm/s; on P-gp (L-MDR1 cells) [8], roughly 1.2 ×10⁻⁶ cm/s.

Consider `CN(CC(=O)O)C(=O)CN` [glycosarcosine] (H-Gly-[Sar]-OH), for which the “effect on ciprofloxacin transport” value with MDCKI cells is listed as “no significant effects; also recorded: no effect”.

Turning to `COc1cc2c(cc1OC)CN(CCc1ccc(NC(=O)c3cccc4c(=O)c5cccc(OC)c5[nH]c34)cc1)CC2` [GG918], the “effect on ciprofloxacin transport” value in the data set with MDCKI cells is recorded as “no significant effects”.

Regarding `C=C[C@H]1C[N@@]2CC[C@H]1C[C@@H]2[C@@H](O)c1ccnc2ccc(OC)cc12` [quinidine], the “effect on ciprofloxacin transport” value in the data set on MDCKI cells is “no significant effects”.
